Test: Storage stability of crystalline form (polymorphic transformation)
Assay type: physicochemical
Settings: stored under 100% relative humidity at 40° C. for 3 days
Description: In another embodiment, the present invention provides a solid crystalline form of ibandronate sodium denominated Form QQ. Form QQ is characterized by x-ray powder diffraction reflections at 6.2, 25.9, 26.7, 31.1, and 37.2±0.2 degrees two-theta. Form QQ can be further characterized by x-ray powder diffraction reflections at 16.9, 17.3, 21.5, 24.7, and 29.2±0.2 degrees two-theta. […] Form QQ also has a particle size distribution of not more than 100μpreferably not more than 60μ. […] can be a in the range of a monohydrate to a trihydrate. Form QQ can be further characterized by TGA, showing a weight loss of about 5 to about 12%.

## CCCCCN(C)CCC(O)(P(=O)([O-])O)P(=O)(O)O.[Na+] [Form QQ, (1-hydroxy-3-(N-methyl-N-pentylamino)propylidene) bisphosphonic acid monosodium salt]
  transformation into other polymorphic forms when stored: ≤ 5%
